Reference: patent US20030199002A1, “Clk-2 nucleic acids, polypeptides and uses thereof” (priority 2000, published 2003)

Key:
[1] = tested on: SK-HEP-1 cells overexpressing hclk-2; assay: Cell death assay (trypan blue exclusion) in SK-HEP-1 cells overexpressing hclk-2; assay type: cell-based, human; conditions: SK-HEP-1 cells overexpressing hclk-2 vs control cells
Procedure: (§1) FIG. 11 illustrates the affect of hclk-2 overexpression on sensitivity to menadione, t-butyl hydroperoxide and hydroxyurea of SK-HEP-1 cells. SK-HEP-1 cells overexpressing hclk-2 and control cells were seeded at 1×10^5/well in a 6-well dish and were treated with γ-rays or apoptosis-inducing compounds for various lengths of time (see Table 7). Cells were then trypsinized, diluted and stained with 0.2% trypan blue. Cell viability was expressed as the percentage of cells excluding trypan blue. The data shown are the means of triplicate experiments. When cells were treated with menadione, t-butyl hydroperoxide or hydroxyurea, the viability of SK-HEP-1 cells overexpressing hclk-2 (44%, 30%, 40% respectively) was dramatically lower than that of the control cells (70%, 63%, 76%), respectively.
(§2) To determine the occurrence of cell death, cells were seeded at 1×10^5 in 6-well dishes. The next day the cells were treated by γ-ray (20 Gy) and counted 72 hr later. A series of different apoptosis-inducing agents were also investigated and the cells were analyzed at various times following treatment (see Table 7). Cell viability was measured by the trypan blue exclusion method.

[2] = as above; assay type: cell-based, human; conditions: human; SK-HEP-1 cells overexpressing hclk-2; concentration and time per Table 7: menadione 12 μM 24 hr, t-butyl hydroperoxide 40 μM 48 hr, hydroxyurea 0.6 mM 96 hr; means of triplicate; read-out: Cell viability (percentage of cells excluding trypan blue)
Procedure: as §1, §2

[3] = Cell death assay (trypan blue exclusion) in SK-HEP-1 control cells; assay type: cell-based; conditions: human; SK-HEP-1 control cells (empty vector); concentration and time per Table 7: menadione 12 μM 24 hr, t-butyl hydroperoxide 40 μM 48 hr, hydroxyurea 0.6 mM 96 hr; means of triplicate; read-out: Cell viability (percentage of cells excluding trypan blue)
Procedure: as §1, §2

Row | Compound | Sensitivity of cells overexpressing hclk-2 to the apoptosis-inducing agent, compared to control cells [1] | viability [2] [%] | viability [3] [%]
1 | CC1=CC(=O)c2ccccc2C1=O [menadione, Menadione] | specifically hypersensitive | – | –
2 | CC(C)(C)OO [t-butyl hydroperoxide, t-Butyl hydroperoxide] | specifically hypersensitive | 30 | 63
3 | COc1cc([C@@H]2c3cc4c(cc3[C@@H](O[C@@H]3O[C@@H]5CO[C@@H](C)O[C@H]5[C@H](O)[C@H]3O)[C@H]3COC(=O)[C@H]23)OCO4)cc(OC)c1O [etoposide, Etoposide] | no evidence to suggest that an increased sensitivity | – | –
4 | NC(=O)NO [hydroxyurea, Hydroxyurea] | also hypersensitive | – | –
